Test results taken from patent US20230026577A1, “Ophthalmic Pharmaceutical Compositions” (Vanda Pharmaceuticals Inc., priority 2019, published 2023).

Legend:
[1] = Forced degradation studies of the compound of Formula I; assay type: physicochemical
Text: The formation of the compound of Formula II is slowed and/or eliminated by inclusion of an "antioxidant system," as described herein, in the novel ophthalmic solution compositions described herein.

[2] = Solubility of the compound of Formula I in various materials (HPLC with UV detector); assay type: physicochemical
Experimental: The solubility of the compound of Formula I in various materials is determined.

Formation of the compound of Formula II [1]: not formed
solubility ([2]; 0.2% poloxamer in water, aqueous with cosolvent or surfactant or cyclodextrin): 10 µg/mL
solubility ([2]; 0.5% polyoxyl 40 hydrogenated castor oil in water, aqueous with cosolvent or surfactant or cyclodextrin): 70 µg/mL
solubility ([2]; 1% polysorbate-80 in water, aqueous with cosolvent or surfactant or cyclodextrin): 100 µg/mL
solubility ([2]; 1.4% polyvinyl alcohol in water, aqueous with cosolvent or surfactant or cyclodextrin, 1.4% Poly Vinyl Alcohol in water): 10 µg/mL
solubility ([2]; 5% polyoxyl 35 castor oil in water, aqueous with cosolvent or surfactant or cyclodextrin): 480 µg/mL
solubility ([2]; 7% polyoxyl 40 stearate in water, aqueous with cosolvent or surfactant or cyclodextrin): 620 µg/mL
solubility ([2]; castor oil, oil or lipid): 1090 µg/mL
solubility ([2]; glycerine, organic solvent or mixture): 100 µg/mL
solubility ([2]; mineral oil, oil or lipid): 40 µg/mL
solubility ([2]; polyethylene glycol 400 (PEG-400), organic solvent or mixture): 14500 µg/mL
solubility ([2]; propylene glycol (PG), organic solvent or mixture): 4960 µg/mL
solubility ([2]; purified water, water): < 10 µg/mL
SMILES: CNc1nc(Nc2ccccc2)nc(OCC(F)(F)C(F)F)n1 [Formula I, N^2-methyl-N^4-phenyl-6-(2,2,3,3-tetrafluoropropoxy)-1,3,5-triazine-2,4-diamine]
